Assay [1] has as its system adult rat models for olfactory nerve axotomy. Briefly: In vivo nerve regeneration after olfactory nerve axotomy. The note with it: for Positive section No. (which section from the vertex, average ± SE): HRP-positive glomerulus. The method, then: Male Wister rats (6.5-week-old) were purchased from CHARLES RIVER JAPAN, INC. and bred under free feeding and water uptake in the dedicated breeding room. A sample solution was prepared by diluting SPF-3059-1 to lmg/ml with PBS and filled in an osmotic pressure pump (alzet 2004, ALZA co., USA). A pump filled with PBS was used as a control. The sample solution and the like were prepared on the day before the operation and the osmotic pressure pump was bathed in PBS and placed overnight at room temperature. Just before the operation, a L-cannula was connected to the one end of a silicon tube filled with the sample solution and the like, and the other end of the tube was connected to the pump. A rat was anesthetized with pentbarbital (50 mg/kg, intrapenitrially injected), and its head was fixed to the stereotaxic apparatus. The scalp was incised along the median and the cranium above the olfactory bulb was opened to expose the olfactory bulb (anterior part). In order to axotomize olfactory nerve, a knife (a razor was cut into 1.5 mm width) was inserted in between the olfactory bulb and the cribriform plate. The olfactory nerve which is projected on the upper olfactory bulb is axotomized by this handling. The L-cannula was fixed to the cranium-opening above the olfactory with surgical instant adhesive and dental cement so that the edge of cannula is located in the vicinity of the incision. The sample output was set to 6 μl (6 μg)/day. The pump was subcutaneously inserted in the dorsal neck and the incision was sutured. Then the animal was recovered.
Two and three weeks after the operation, the rat anesthetized with pentbarbital was laid on its back and injected with 100 μl of 1% WGA-HRP/PBS (TOYOBO) into the nasal cavity using a microsyringe. 24 hours after the HRP injection, the rat was further anesthetized with pentbarbital (50 mg/kg, intrapenitrially injected) and was thoracically incised. […]
Regeneration of olfactory nerves was quantitatively assessed by observing in which horizontal section of the olfactory bulb from the vertex did HRP-positive glomerulus emerge. […]

Assay [2] concerns the target T1, rat semaphorin 6C-AP (Sema6C-AP) (Rattus norvegicus, UniProt Q9WTL3).
T1 construct: a fusion protein of extracellular domain of Sema6C and human placenta-derived alkaline phosphatase
T1 sequence (Q9WTL3 24-635 limits assumed): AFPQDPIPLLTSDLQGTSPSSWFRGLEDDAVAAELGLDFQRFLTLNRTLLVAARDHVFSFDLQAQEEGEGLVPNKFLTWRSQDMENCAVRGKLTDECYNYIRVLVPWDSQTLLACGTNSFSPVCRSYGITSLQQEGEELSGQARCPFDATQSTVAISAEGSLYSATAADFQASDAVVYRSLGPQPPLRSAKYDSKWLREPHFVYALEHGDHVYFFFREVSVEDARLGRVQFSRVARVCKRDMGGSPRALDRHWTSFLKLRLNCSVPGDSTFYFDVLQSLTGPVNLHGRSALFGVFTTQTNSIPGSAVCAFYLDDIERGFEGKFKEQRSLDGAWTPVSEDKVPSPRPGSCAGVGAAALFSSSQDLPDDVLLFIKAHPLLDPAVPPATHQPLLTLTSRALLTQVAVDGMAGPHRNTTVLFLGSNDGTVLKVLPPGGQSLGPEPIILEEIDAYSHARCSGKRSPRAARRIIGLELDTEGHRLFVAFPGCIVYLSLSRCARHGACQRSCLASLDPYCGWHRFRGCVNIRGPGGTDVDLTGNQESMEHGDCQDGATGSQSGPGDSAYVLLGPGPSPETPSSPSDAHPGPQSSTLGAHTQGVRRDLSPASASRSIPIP
Put plainly: Suppression of growth cone collapse activity of Sema6C-AP (chick embryo dorsal root ganglions). The assay is classed as cell-based. The method, then: The experiment was carried out in a same way as in Example 2 except that rat semaphorin 6C-AP (Sema6C-AP: a fusion protein of extracellular domain of Sema6C and human placenta-derived alkaline phosphatase) was used instead of mouse semaphorin 3A (Sema3A), and dorsal root ganglions excised from 8-day-old chick embryos were used instead of those excised from 7-day-old chick embryos. The collapse rate of growth cone was measured when Sema6C-AP was added one hour after the addition of the compound SPF-3059-1 at various concentrations.

As to `CC(=O)c1c(C)c(C(=O)C2COc3cc(O)c(O)c(C(=O)O)c3C2=O)cc2c(=O)c3c(C(=O)O)c(O)c(O)cc3oc12` (centres unmarked) [SPF-3059-1], the “in vivo nerve-regeneration promoting action in olfactory nerve axotomy (in words)” value in assay [1] is on record as “marked nerve-regeneration promoting action”. Moreover, the “Positive section No. (which section from the vertex, average ± SE)” value in assay [1] (Week 2, 6 μg/day by osmotic pump near incision) came to 8.3 ± 1.9; in assay [1] (Week 3, 6 μg/day by osmotic pump near incision), 5.2 ± 1.9. The “inhibition of growth cone collapse activity of Sema6C-AP (in words)” value in assay [2] (E8 chick embryo dorsal root ganglions, Sema6C-AP added one hour after compound) was “inhibit the growth cone collapse activities of Sema6C-AP in a concentration-dependent manner”. Further, the “collapse rate of growth cones, compound alone” value in assay [2] (Sema6C-AP not added) is reported as “did not affect the rate at all”.

The record behind these values is patent publication US7317038B2, “Nerve regeneration promoters containing semaphorin inhibitor as the active ingredient” (Dainippon Sumitomo Pharma Co., Ltd., priority 2000, dated 2008).
